Laboratory results reported in PMC6039436, “Radiobrominated benzimidazole-quinoline derivatives as Platelet-derived growth factor receptor beta (PDGFRβ) imaging probes” (Scientific Reports, 2018).
Marks after values point to notes of the source that are not given here. Values belong to the molecule of their own block, whether it stands above or below them.

Experiments:
[1] = molecular target: T1, PDGFRβ (BxPC3-luc cells) (Homo sapiens, UniProt P09619); assay: Competitive binding assay of [^125I]4 with BxPC3-luc cells; settings: displacement of [^125I]4, BxPC3-luc cells, 37 °C, 4 h
T1 construct: host or cells: BxPC3-luc cells
Description: We investigated the competitive binding of [^125I]4 to BxPC3-luc cells with PDGFRβ ligand, 1, 2, and 3.
BxPC3-luc cells in medium containing 10% FBS and antibiotics were seeded on 24-well plates (50,000 cells/wells) and incubated for 24 h in a 5% CO2 incubator at 37 °C. Nine concentrations of displacing nonradiolabeled ligands (1, 2 and 3) (ranging from 1 pM to 1 mM) and [^125I]4 in medium without FBS were incubated at 37 °C for 4 h. After washing the cells twice using 250 µL of ice-cold PBS, the unbound radioligand was removed. The cells were dissolved using 250 µL of 1 M NaOH and wells were washed with 250 µL of 1 M NaOH. The bound radioactivity was determined using a gamma counter.
All data were statisticaly analyzed using GraphPad 5.0 software (La Jolla, CA, USA) and expressed as mean ± standard deviation (SD). Significance for in vitro blocking experiments was determined by a one-way analysis of variance (ANOVA) followed by Dunnett’s post hoc test compared to the control group. Significance in cell viability assays was determined by ANOVA followed by Tukey’s post hoc test. IC50 values for the binding assay were calculated by nonlinear regression. Significant differences in biodistribution experiments between [^77Br]2 and [^77Br]3 groups were determined using unpaired Student’s t-test. Significance for in vivo blocking studies between control and blocking groups were determined by unpaired Student’s t-test. Results were considered statistically significant at p < 0.05.

[2] = Biodistribution in ddY mice; assay type: in vivo; settings: i.v. co-injection
Description: In this study, to minimize both the number of mice consumed in the experiment and the potential for experimental errors, we co-injected radiobrominated and radioiodinated compounds into mice[30],[31]. High radioactivity in the liver, small intestine, and large intestine was observed.
(§1) Mice were intravenously injected via the tail with 100 µL of saline solution of [^77Br]2 and [^125I]4 or [^77Br]3 and [^125I]5 (74 kBq, respectively), containing 10% ethanol and 1% tween-80. The ddY mice were sacrificed at 10 min, 1, 4, and 24 h postinjection. Meanwhile, tumor-bearing mice were sacrificed at 1 h postinjection.
(§2) Tissues in mice were resected and weighed. The radioactivity of the tissues was counted by a gamma counter and counts were corrected for background radiation. The data were expressed as percent injection dose per gram tissue (%ID/g).

[3] = tested on: BxPC3-luc tumor; assay: Biodistribution in BxPC3-luc tumor-bearing mice; assay type: in vivo, BALB/c nu/nu mice; settings: i.v. co-injection, 1 h
Description: We investigated the biodistribution of the radiotracers in BxPC3-luc tumor-bearing mice by co-injecting [^77Br]2 with [^125I]4 (Table 3), and [^77Br]3 with [^125I]5 (Table 4).
Animal experiments were conducted in strict accordance with the Guidelines for the Care and Use of Laboratory Animals of Kanazawa University. The animal experimental protocols used were approved by the Committee on Animal Experimentation of Kanazawa University (Permit Number: AP-163766). The animals were housed with free access to food and water at approximately 23 °C with a 12 h light/dark schedule. ddY mice (six-week-old, male, 27–30 g) and BALB/c nu/nu mice (four-week-old, female, 12–17 g) were purchased from Japan SLC Inc. (Hamamatsu, Japan). For preparing the tumor-bearing mice, BxPC3-luc cells (5 × 10^6 cells) were subcutaneously injected into the left shoulder of BALB/c nu/nu mice. The tumor reached palpable size after two weeks of the inoculation.
as §1, §2

[4] = parameters: method as in PMID 28838832; settings: radioiodinated compounds; cited from earlier work

T1 sequence (P09619 33-1106): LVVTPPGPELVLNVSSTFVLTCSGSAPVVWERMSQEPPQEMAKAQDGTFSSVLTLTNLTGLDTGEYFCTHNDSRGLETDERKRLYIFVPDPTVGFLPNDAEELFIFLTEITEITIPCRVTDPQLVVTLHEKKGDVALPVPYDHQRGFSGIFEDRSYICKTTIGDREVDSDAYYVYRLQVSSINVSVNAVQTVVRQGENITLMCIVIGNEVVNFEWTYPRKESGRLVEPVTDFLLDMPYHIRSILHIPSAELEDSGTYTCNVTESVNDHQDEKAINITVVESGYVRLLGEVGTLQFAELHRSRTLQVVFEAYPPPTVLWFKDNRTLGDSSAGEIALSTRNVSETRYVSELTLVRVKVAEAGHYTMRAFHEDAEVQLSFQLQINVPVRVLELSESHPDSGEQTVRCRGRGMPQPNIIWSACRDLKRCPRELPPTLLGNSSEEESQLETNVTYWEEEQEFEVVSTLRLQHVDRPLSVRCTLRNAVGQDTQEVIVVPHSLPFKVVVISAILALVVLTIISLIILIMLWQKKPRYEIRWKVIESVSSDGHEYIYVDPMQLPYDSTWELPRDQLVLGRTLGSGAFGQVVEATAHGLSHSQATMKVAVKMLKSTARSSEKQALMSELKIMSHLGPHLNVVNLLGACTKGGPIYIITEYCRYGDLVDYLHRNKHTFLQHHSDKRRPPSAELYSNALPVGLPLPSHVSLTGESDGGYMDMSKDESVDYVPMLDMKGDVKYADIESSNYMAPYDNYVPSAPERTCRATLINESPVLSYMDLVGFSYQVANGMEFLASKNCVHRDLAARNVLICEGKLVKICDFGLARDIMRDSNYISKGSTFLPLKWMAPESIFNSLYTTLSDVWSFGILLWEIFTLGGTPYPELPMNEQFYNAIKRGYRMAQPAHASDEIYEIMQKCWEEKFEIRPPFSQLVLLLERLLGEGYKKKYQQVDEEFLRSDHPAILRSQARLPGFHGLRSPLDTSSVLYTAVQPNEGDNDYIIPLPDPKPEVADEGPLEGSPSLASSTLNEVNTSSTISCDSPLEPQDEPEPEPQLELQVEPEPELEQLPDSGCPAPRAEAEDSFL

IC50 [1]: 183 ± 8 nM
Structure (SMILES): COCCOc1ccc2c(c1)ncn2-c1ccc2cccc(N3CCC(N)CC3)c2n1 [Compound 1, 1-{2-[5-(2-methoxyethoxy)-1H-benzo[d]imidazol-1-yl]quinolin-8-yl}piperidin-4-amine, reference compound]

IC50 [1]: 1280 nM
Structure (SMILES): COCCOc1ccc2c(c1)ncn2-c1ccc2cccc(N3CCC(NC(=O)c4cccc(Br)c4)CC3)c2n1 [Compound 3, N-3-bromobenzoyl-1-{2-[5-(2-methoxyethoxy)-1H-benzo[d]imidazol-1-yl]quinolin-8-yl}-piperidin-4-amine]

Radioactivity in Kidney ([2]; 10 min): 5.23 (0.65) %injected dose/gram tissue | Radioactivity in Large intestine ([2]; 10 min): 0.75 (0.06)^* %injected dose/gram tissue | Radioactivity in Lung ([2]; 10 min): 1.80 (0.30)^* %injected dose/gram tissue | Radioactivity in Muscle ([2]; 10 min): 0.97 (0.16)^* %injected dose/gram tissue | Radioactivity in Pancreas ([2]; 10 min): 2.41 (0.20) %injected dose/gram tissue | Radioactivity in Spleen ([2]; 10 min): 1.72 (0.23) %injected dose/gram tissue | Radioactivity in Stomach ([2]; 10 min): 2.09 (1.12) %injected dose /organ | Radioactivity in Kidney ([2]; 1 h): 1.57 (0.42) %injected dose/gram tissue | Radioactivity in Large intestine ([2]; 1 h): 3.46 (2.18) %injected dose/gram tissue | Radioactivity in Lung ([2]; 1 h): 1.07 (0.08) %injected dose/gram tissue | Radioactivity in Muscle ([2]; 1 h): 0.31 (0.13)^* %injected dose/gram tissue | Radioactivity in Stomach ([2]; 1 h): 0.78 (0.19) %injected dose /organ | Radioactivity in Kidney ([2]; 4 h): 0.36 (0.10)^* %injected dose/gram tissue | Radioactivity in Liver ([2]; 4 h): 1.21 (0.96) %injected dose/gram tissue | Radioactivity in Lung ([2]; 4 h): 0.50 (0.19) %injected dose/gram tissue | Radioactivity in Muscle ([2]; 4 h): 0.16 (0.08)^* %injected dose/gram tissue | Radioactivity in Small intestine ([2]; 4 h): 1.32 (0.66)^* %injected dose/gram tissue | Radioactivity in Stomach ([2]; 4 h): 0.27 (0.10) %injected dose /organ | Radioactivity in Stomach ([2]; 24 h): 0.01 (0.00)^** %injected dose /organ | Radioactivity in Stomach [3]: 0.27 (0.06)^* %injected dose /organ
Structure (SMILES): COCCOc1ccc2c(c1)ncn2-c1ccc2cccc(N3CCC(NC(=O)c4cccc([125I])c4)CC3)c2n1 [[^125I]5, [^125I]N-3-iodobenzoyl-1-{2-[5-(2-methoxyethoxy)-1H-benzo[d]imidazol-1-yl]quinolin-8-yl}-piperidin-4-amine, reference compound]
Radioactivity in Blood ([2]; 10 min): 0.94 (0.14)^** %injected dose/gram tissue | Radioactivity in Bone ([2]; 10 min): 0.81 (0.11)^** %injected dose/gram tissue | Radioactivity in Brain ([2]; 10 min): 0.19 (0.03)^** %injected dose/gram tissue | Radioactivity in Heart ([2]; 10 min): 1.66 (0.23)^** %injected dose/gram tissue | Radioactivity in Liver ([2]; 10 min): 16.37 (2.05)^** %injected dose/gram tissue | Radioactivity in Small intestine ([2]; 10 min): 9.59 (1.71)^** %injected dose/gram tissue | Radioactivity in Blood ([2]; 1 h): 0.26 (0.05)^** %injected dose/gram tissue | Radioactivity in Bone ([2]; 1 h): 0.64 (0.31)^*** %injected dose/gram tissue | Radioactivity in Brain ([2]; 1 h): 0.07 (0.03)^** %injected dose/gram tissue | Radioactivity in Heart ([2]; 1 h): 0.39 (0.15)^** %injected dose/gram tissue | Radioactivity in Liver ([2]; 1 h): 3.32 (0.49)^** %injected dose/gram tissue | Radioactivity in Pancreas ([2]; 1 h): 0.86 (0.07)^** %injected dose/gram tissue | Radioactivity in Small intestine ([2]; 1 h): 24.03 (1.45)^** %injected dose/gram tissue | Radioactivity in Spleen ([2]; 1 h): 0.70 (0.16)^** %injected dose/gram tissue | Radioactivity in Blood ([2]; 4 h): 0.08 (0.01)^** %injected dose/gram tissue | Radioactivity in Bone ([2]; 4 h): 0.40 (0.09)^** %injected dose/gram tissue | Radioactivity in Brain ([2]; 4 h): 0.01 (0.00)^** %injected dose/gram tissue | Radioactivity in Heart ([2]; 4 h): 0.20 (0.04)^** %injected dose/gram tissue | Radioactivity in Large intestine ([2]; 4 h): 18.55 (1.85)^** %injected dose/gram tissue | Radioactivity in Pancreas ([2]; 4 h): 0.27 (0.07)^** %injected dose/gram tissue | Radioactivity in Spleen ([2]; 4 h): 0.27 (0.09)^** %injected dose/gram tissue | Radioactivity in Blood ([2]; 24 h): 0.01 (0.00)^** %injected dose/gram tissue | Radioactivity in Bone ([2]; 24 h): 0.06 (0.00)^** %injected dose/gram tissue | Radioactivity in Brain ([2]; 24 h): 0.00 (0.00)^** %injected dose/gram tissue | Radioactivity in Heart ([2]; 24 h): 0.02 (0.01)^** %injected dose/gram tissue | Radioactivity in Kidney ([2]; 24 h): 0.05 (0.00)^** %injected dose/gram tissue | Radioactivity in Large intestine ([2]; 24 h): 0.02 (0.00)^** %injected dose/gram tissue | Radioactivity in Liver ([2]; 24 h): 0.06 (0.00)^** %injected dose/gram tissue | Radioactivity in Lung ([2]; 24 h): 0.01 (0.00)^** %injected dose/gram tissue | Radioactivity in Muscle ([2]; 24 h): 0.01 (0.00)^** %injected dose/gram tissue | Radioactivity in Pancreas ([2]; 24 h): 0.02 (0.00)^** %injected dose/gram tissue | Radioactivity in Small intestine ([2]; 24 h): 0.01 (0.00)^** %injected dose/gram tissue | Radioactivity in Spleen ([2]; 24 h): 0.02 (0.00)^** %injected dose/gram tissue | Radioactivity in Blood [3]: 0.23 (0.02)^** %injected dose/gram of tissue | Radioactivity in Bone [3]: 0.31 (0.04)^** %injected dose/gram of tissue | Radioactivity in Brain [3]: 0.05 (0.00)^** %injected dose/gram of tissue | Radioactivity in BxPC3-luc tumor [3]: 0.55 (0.09)^* %injected dose/gram of tissue | Radioactivity in Heart [3]: 0.42 (0.05)^** %injected dose/gram of tissue | Radioactivity in Kidney [3]: 1.13 (0.11)^** %injected dose/gram of tissue | Radioactivity in Large intestine [3]: 7.98 (3.79) %injected dose/gram of tissue | Radioactivity in Liver [3]: 4.83 (0.71)^** %injected dose/gram of tissue | Radioactivity in Lung [3]: 1.16 (0.23)^** %injected dose/gram of tissue | Radioactivity in Muscle [3]: 0.38 (0.06)^** %injected dose/gram of tissue | Radioactivity in Pancreas [3]: 1.25 (0.17)^** %injected dose/gram of tissue | Radioactivity in Small intestine [3]: 46.95 (2.88)^** %injected dose/gram of tissue | Radioactivity in Spleen [3]: 0.61 (0.06)^** %injected dose/gram of tissue | n-octanol/phosphate buffer partition coefficient (log P) [4]: 3.19 ± 0.17
